Assay [1] is described as follows: C. glabrata growth inhibition on glucose, dose response, glucose medium, OD600, dry powder (AID 602185). The note with it: Candida glabrata growth in glucose, OD600, 48 h, hits give low values.
Assay [2] relates to Candida glabrata growth in glucose, OD600, 48 h. Described as above.

The source made the active and inactive calls.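 Rule for the calls: active = compounds curbing yeast growth with fitted half-effect dose at most twice their top tested dose; inconclusive = flat fit at 30 to 70% inhibition, or poor fit; inactive = the rest.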

On to `NC(=O)c1cccc(C(=O)Nc2nc(-c3ccc4c(c3)CCCC4)cs2)c1`, for which the max activity, negative = growth inhibition in assay [1] (at 2.6 µM) is 14.1% (inactive).

Take `Oc1c(C(c2ccc(Cl)cc2)N2CCCC2)ccc2cccnc12` (centres undefined): the max activity, negative = growth inhibition in assay [1] (at 1.2 µM) was 12% (inactive).

What is called AC50 is the concentration at which the activity in the assay is half-maximal. Take `O=C(Oc1c(Cl)cc(Cl)c2cccnc12)c1ccco1`: the AC50 in assay [2] was 1.14 µM.

As for `Cc1ccc(-c2nc3c(Cl)cc(Cl)cc3c(=O)n2O)cc1`, in assay [2], the AC50 is 1.75 µM.

As for `C/C(=N\NC(=O)c1cc2ccccc2cc1O)c1ccccn1`, the max activity, negative = growth inhibition in assay [1] (at 5 µM) is 18.8% (inactive).

With `O=C(Nc1nc(-c2ccc3c(c2)CCCC3)cs1)c1ccccc1`, in assay [1] (at 0.3 µM), the max activity, negative = growth inhibition was 19.6% (inactive).

Take `C=CCNC(=S)N/N=C(\C)c1ccccn1`: in assay [2], the AC50 is 6.14 µM.

Regarding `CN1CCN(C(c2ccc(C(F)(F)F)cc2)c2ccc3cccnc3c2O)CC1` (centres undefined), in assay [2], the AC50 is 2.18 µM.

`COc1ccc(-c2nnc(NC(=O)c3ccc(S(=O)(=O)N4CCCc5ccccc54)cc3)o2)cc1`: the max activity, negative = growth inhibition in assay [1] (at 0.3 µM) was 12.6% (inactive).

Turning to `Oc1c(CN2CCc3ccccc3C2)cc(Cl)c2cccnc12`, the max activity, negative = growth inhibition in assay [1] (at 10 µM) is 15.2% (inactive).

On to `O=C(Nc1nc(-c2ccccn2)cs1)c1ccccc1`, for which the max activity, negative = growth inhibition in assay [1] (at 19.5 µM) was -14.7% (inactive).

For the compound `O=C(NNC(=S)Nc1ccc(Cl)c(Cl)c1)c1ccccn1`, the AC50 in assay [2] was 10.1 µM.

With `CCOC(=O)N1C(=O)C2(CCCCC2)N(c2ccc(C)cc2)C1=S`, in assay [1] (at 0.08 µM), the max activity, negative = growth inhibition is 13.5% (inactive).

For the compound `O=C(Nc1nnc(-c2ccc3c(c2)CCCC3)o1)c1ccc(Cl)cc1Cl`, in assay [1] (at 0.16 µM), the max activity, negative = growth inhibition was 21% (inactive).

Consider `O=C(Nc1nc(-c2ccccc2)cs1)c1ccc(Br)s1`, for which the max activity, negative = growth inhibition in assay [1] (at 0.3 µM) was 11.1% (inactive).

With `Oc1c(C(c2ccccc2Cl)N2CCCCC2)ccc2cccnc12` (centres undefined), in assay [1] (at 19.5 µM), the max activity, negative = growth inhibition was -24.3% (inactive).

In the case of `Cc1cc(C)n(-c2nc3ccccc3c(=O)n2OCC#N)n1`, the max activity, negative = growth inhibition in assay [1] (at 19.5 µM) was -17.9% (inactive).

Turning to `CCCC(=O)NC(c1cccs1)c1cc(Cl)c2cccnc2c1O` (centres undefined), the AC50 in assay [2] is 3.27 µM.

As to `O=C(Nc1nc(-c2ccccn2)cs1)c1ccc(Cl)s1`, in assay [2], the AC50 is 9.57 µM.

`Cc1ccc(C(=O)Nc2nnc(-c3ccccc3)o2)cc1C`: in assay [1] (at 0.16 µM), the max activity, negative = growth inhibition was 18.7% (inactive).

With `Cc1ccc(C(=O)Nc2nc(-c3ccccn3)cs2)cc1`, in assay [1] (at 19.5 µM), the max activity, negative = growth inhibition is -34.8% (inactive).

As for `O=C(Nc1nc(-c2ccccn2)cs1)c1ccc(Br)s1`, the AC50 in assay [2] was 8.64 µM.

Consider `Oc1c(CN2CCN(c3ccccc3)CC2)cc(Cl)c2cccnc12`, for which, in assay [1] (at 0.35 µM), the max activity, negative = growth inhibition is 12.9% (inactive).

With `O=C(Nc1nnc(-c2ccc3c(c2)CCCC3)o1)c1ccccc1`, the max activity, negative = growth inhibition in assay [1] (at 2.6 µM) is -10.5% (inactive).

Source of the values: PubChem BioAssay AID602185 (Broad Institute, 2012).
